Assay results from PubChem BioAssay AID330 (DTP/NCI, 2004).
Where “and” joins values, the source holds several entries; their conditions need not be identical. Equal entries are not always repeated. Inconclusive results and toxic doses are left out.

System: P388 leukemia ip, CD2F1 mice, survival T/C
Assay: NCI In Vivo Anticancer Drug Screen. Data for tumor model P388 Leukemia (intraperitoneal) in CD2F1 (CDF1) mice
Settings: endpoint: median survival time, higher = longer survival
Method in brief: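 Mice carrying the transplanted tumor received test compound or vehicle. Survival was recorded in each group, and the value is the treated-group measurement divided by that of the vehicle-treated control group.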

[1] = dose: 50.0 mg/kg/injection, schedule: Q01DX009 (ip), vehicle: saline with Tween-80
[2] = dose: 100.0 mg/kg/injection, schedule: Q01DX009 (ip), vehicle: saline with Tween-80
[3] = dose: 200.0 mg/kg/injection, schedule: Q01DX009 (ip), vehicle: saline with Tween-80
[4] = dose: 400.0 mg/kg/injection, schedule: Q01DX009 (ip), vehicle: saline with Tween-80
[5] = dose: 60.0 mg/kg/injection, schedule: Q01DX005 (ip), vehicle: Klucel (hydroxypropylcellulose) (HPC)
[6] = dose: 60.0 mg/kg/injection, schedule: Q01DX005 (ip), vehicle: saline with Tween-80
[7] = dose: 120.0 mg/kg/injection, schedule: Q01DX005 (ip), vehicle: saline with Tween-80
[8] = dose: 50.0 mg/kg/injection, schedule: Q01DX005 (ip), vehicle: saline
[9] = dose: 100.0 mg/kg/injection, schedule: Q01DX005 (ip), vehicle: saline
[10] = dose: 200.0 mg/kg/injection, schedule: Q01DX005 (ip), vehicle: saline
[11] = dose: 50.0 mg/kg/injection, schedule: Q01DX005 (ip), vehicle: saline with Tween-80
[12] = dose: 100.0 mg/kg/injection, schedule: Q01DX005 (ip), vehicle: saline with Tween-80
[13] = dose: 200.0 mg/kg/injection, schedule: Q01DX005 (ip), vehicle: saline with Tween-80

In the case of `CCN(CC)CN1C(=O)C2C3C=CC(C2C1=O)C1C2C(=O)N(CN(CC)CC)C(=O)C2C31` (stereo not drawn), the T/C (dose: 25.0 mg/kg/injection, schedule: Q01DX009 (ip), vehicle: saline with Tween-80) is reported as 103 % of control, the T/C [1] is reported as 102 % of control and 111 % of control and the T/C [2] is reported as 116 % of control and 117 % of control and 119 % of control. The T/C [3] was 119 % of control and the T/C [4] was 111 % of control.
For `CC1(C)C(C#N)C(=O)N(Cc2ccccc2)C(=O)C1C#N` (stereo not drawn), the T/C [1] was 100 % of control, the T/C [2] was 104 % of control and the T/C [3] was 113 % of control.
In the case of `CCOC(=O)C1=C(C)NC(SC)=NC1c1ccccc1` (stereo not drawn), the T/C [5] is reported as 99 % of control, the T/C (dose: 120.0 mg/kg/injection, schedule: Q01DX005 (ip), vehicle: Klucel (hydroxypropylcellulose) (HPC)) is reported as 97 % of control and the T/C (dose: 240.0 mg/kg/injection, schedule: Q01DX005 (ip), vehicle: Klucel (hydroxypropylcellulose) (HPC)) is reported as 99 % of control.
In the case of `CC1OC(Nc2ncnc3nc[nH]c23)C(O)C(O)C1NC(=O)CNC(=O)CCCCCCCCCCCC(C)(C)C` (stereo not drawn), the T/C (dose: 0.25 mg/kg/injection, schedule: Q01DX009 (ip), vehicle: distilled water + Tween-80) is reported as 111 % of control and 117 % of control, the T/C (dose: 0.5 mg/kg/injection, schedule: Q01DX009 (ip), vehicle: distilled water + Tween-80) is reported as 118 % of control and the T/C (dose: 1.0 mg/kg/injection, schedule: Q01DX009 (ip), vehicle: distilled water + Tween-80) is reported as 166 % of control. The T/C (dose: 2.0 mg/kg/injection, schedule: Q01DX009 (ip), vehicle: distilled water + Tween-80) was 117 % of control and the T/C (dose: 4.0 mg/kg/injection, schedule: Q01DX009 (ip), vehicle: distilled water + Tween-80) was 108 % of control and 91 % of control.
For `CC(NC(=S)Nc1ccccc1)c1ccccc1` (stereo not drawn), the T/C (dose: 25.0 mg/kg/injection, schedule: Q04DX002 (ip), vehicle: Klucel (hydroxypropylcellulose) (HPC)) was 100 % of control, the T/C (dose: 50.0 mg/kg/injection, schedule: Q04DX002 (ip), vehicle: Klucel (hydroxypropylcellulose) (HPC)) was 100 % of control and the T/C (dose: 100.0 mg/kg/injection, schedule: Q04DX002 (ip), vehicle: Klucel (hydroxypropylcellulose) (HPC)) was 96 % of control.
With `CCC[CH2][Pb]([CH2]CCC)([O]C(C)=O)[O]C(C)=O` the T/C (dose: 1.56 mg/kg/injection, schedule: Q04DX003 (ip), vehicle: saline) was 114 % of control, the T/C (dose: 3.13 mg/kg/injection, schedule: Q04DX003 (ip), vehicle: saline) was 118 % of control and the T/C (dose: 6.25 mg/kg/injection, schedule: Q04DX003 (ip), vehicle: saline) was 120 % of control.
`CCOC(=O)C12C3C(=O)N(CC)C(=O)C3ON1OC1C(=O)N(CC)C(=O)C12` (stereo not drawn) was tested, and the T/C [6] was 100 % of control, the T/C [7] was 100 % of control and the T/C (dose: 240.0 mg/kg/injection, schedule: Q01DX005 (ip), vehicle: saline with Tween-80) was 95 % of control.
In the case of `COc1ccc(OC)c2c(Cl)cc(N(C)C)nc12`, the T/C [6] is reported as 99 % of control and the T/C [7] is reported as 97 % of control.
In the case of `CCCC(NC(=O)C(C)Br)C(=O)O` (stereo not drawn), the T/C (dose: 100.0 mg/kg/injection, schedule: Q04DX003 (ip), vehicle: saline with Tween-80) is reported as 95 % of control, the T/C (dose: 200.0 mg/kg/injection, schedule: Q04DX003 (ip), vehicle: saline with Tween-80) is reported as 100 % of control and the T/C (dose: 400.0 mg/kg/injection, schedule: Q04DX003 (ip), vehicle: saline with Tween-80) is reported as 100 % of control.
`OC1(O)CCCCN1Cc1ccccc1` was tested, and the T/C (dose: 25.0 mg/kg/injection, schedule: Q01DX005 (ip), vehicle: saline) was 103 % of control, the T/C [8] was 101 % of control and the T/C [9] was 100 % of control. For the same compound, the T/C [10] was 107 % of control.
For `O=[N+]([O-])c1cc(Cl)c(Cl)cc1Cl`, the T/C [1] was 109 % of control, the T/C [2] was 100 % of control and the T/C [3] was 104 % of control.
In the case of `COc1cccc(OC)c1OCCN`, the T/C (dose: 50.0 mg/kg/injection, schedule: Q01DX009 (ip), vehicle: saline) is reported as 111 % of control and the T/C (dose: 100.0 mg/kg/injection, schedule: Q01DX009 (ip), vehicle: saline) is reported as 99 % of control.
With `CCOc1c(N=Nc2cccc(Cl)c2)c(C)nn1C(=S)SC` the T/C (dose: 60.0 mg/kg/injection, schedule: Q01DX005 (ip), vehicle: Klucel + Tween-80) was 94 % of control, the T/C (dose: 120.0 mg/kg/injection, schedule: Q01DX005 (ip), vehicle: Klucel + Tween-80) was 98 % of control and the T/C (dose: 240.0 mg/kg/injection, schedule: Q01DX005 (ip), vehicle: Klucel + Tween-80) was 99 % of control.
In the case of `Cc1[nH]c(=O)[nH]c(=O)c1CO`, the T/C [1] is reported as 100 % of control, the T/C [2] is reported as 102 % of control and the T/C [3] is reported as 101 % of control. The T/C [4] was 100 % of control.
In the case of `O=C(O)c1ccccc1N=N/C(=N\Nc1ccccc1C(=O)O)c1ccnc2ccccc12`, the T/C [1] is reported as 100 % of control, the T/C [2] is reported as 97 % of control and the T/C [3] is reported as 103 % of control.
`Cc1noc(C)c1CON` was tested, and the T/C (dose: 75.0 mg/kg/injection, schedule: Q01DX009 (ip), vehicle: saline with Tween-80) was 91 % of control, the T/C (dose: 75.0 mg/kg/injection, schedule: Q04DX003 (ip), vehicle: saline) was 95 % of control and the T/C (dose: 150.0 mg/kg/injection, schedule: Q04DX003 (ip), vehicle: saline) was 95 % of control. The T/C (dose: 300.0 mg/kg/injection, schedule: Q04DX003 (ip), vehicle: saline) was 91 % of control.
`CC(=O)N1CN=C2Sc3ccccc3N2C1` was tested, and the T/C (dose: 15.0 mg/kg/injection, schedule: Q01DX005 (ip), vehicle: Klucel (hydroxypropylcellulose) (HPC)) was 103 % of control, the T/C (dose: 30.0 mg/kg/injection, schedule: Q01DX005 (ip), vehicle: Klucel (hydroxypropylcellulose) (HPC)) was 105 % of control and the T/C [5] was 100 % of control and 104 % of control.
In the case of `CCCCCCCCCC(=O)Nc1ncc([N+](=O)[O-])s1`, the T/C (dose: 50.0 mg/kg/injection, schedule: Q01DX009 (ip), vehicle: Klucel (hydroxypropylcellulose) (HPC)) is reported as 94 % of control, the T/C (dose: 100.0 mg/kg/injection, schedule: Q01DX009 (ip), vehicle: Klucel (hydroxypropylcellulose) (HPC)) is reported as 91 % of control and the T/C (dose: 200.0 mg/kg/injection, schedule: Q01DX009 (ip), vehicle: Klucel (hydroxypropylcellulose) (HPC)) is reported as 94 % of control.
With `N#CCSCC(NC(=O)c1ccccc1)C(=O)O` (stereo not drawn) the T/C [8] was 100 % of control, the T/C [9] was 87 % of control and the T/C [10] was 97 % of control.
In the case of `CC(C)=C1C2C=CC1C1C2C(=O)C2OC2(CO)C1O` (stereo not drawn), the T/C [11] is reported as 100 % of control, the T/C [12] is reported as 100 % of control and the T/C [13] is reported as 101 % of control.
With `CC1(C)CC(C)(C)c2c1oc(=O)c1c3c(oc(=O)c21)C(C)(C)CC3(C)C` the T/C (dose: 3.12 mg/kg/injection, schedule: Q01DX005 (ip), vehicle: Klucel (hydroxypropylcellulose) (HPC)) was 96 % of control, the T/C (dose: 6.25 mg/kg/injection, schedule: Q01DX005 (ip), vehicle: Klucel (hydroxypropylcellulose) (HPC)) was 100 % of control and the T/C (dose: 12.5 mg/kg/injection, schedule: Q01DX005 (ip), vehicle: Klucel (hydroxypropylcellulose) (HPC)) was 87 % of control. The T/C (dose: 25.0 mg/kg/injection, schedule: Q01DX005 (ip), vehicle: Klucel (hydroxypropylcellulose) (HPC)) was 87 % of control and 90 % of control and the T/C (dose: 100.0 mg/kg/injection, schedule: Q01DX005 (ip), vehicle: Klucel (hydroxypropylcellulose) (HPC)) was 90 % of control and 91 % of control.
With `CCN(CC)CCCC(C)Nc1nc(-c2ccccc2)nc2ccccc12` (stereo not drawn) the T/C [8] was 99 % of control, the T/C [9] was 101 % of control and the T/C [10] was 110 % of control.
`CC1=C(CO)C(=O)O[C@@H]([C@@H](C)[C@H]2CC[C@H]3[C@@H]4C[C@H]5O[C@]56[C@@H](O)C=CC(=O)[C@]6(C)[C@H]4CC[C@]23C)C1` was tested, and the T/C (dose: 2.5 mg/kg/injection, schedule: Q04DX003 (ip), vehicle: saline) was 102 % of control and 103 % of control, the T/C (dose: 5.0 mg/kg/injection, schedule: Q04DX003 (ip), vehicle: saline) was 100 % of control and 103 % of control and the T/C (dose: 10.0 mg/kg/injection, schedule: Q04DX003 (ip), vehicle: saline) was 109 % of control and 110 % of control. The T/C (dose: 20.0 mg/kg/injection, schedule: Q04DX003 (ip), vehicle: saline) was 102 % of control and 116 % of control and the T/C (dose: 40.0 mg/kg/injection, schedule: Q04DX003 (ip), vehicle: saline) was 109 % of control and 123 % of control.
For `CSCCC([NH-])C(=O)O.CSCCC([NH-])C(=O)O.[Ni+2]` (stereo not drawn), the T/C (dose: 0.79 mg/kg/injection, schedule: Q01DX009 (ip), vehicle: saline) was 92 % of control, the T/C (dose: 1.56 mg/kg/injection, schedule: Q01DX009 (ip), vehicle: saline) was 96 % of control and the T/C (dose: 3.12 mg/kg/injection, schedule: Q01DX009 (ip), vehicle: saline) was 97 % of control. For the same compound, the T/C (dose: 12.5 mg/kg/injection, schedule: Q01DX009 (ip), vehicle: saline) was 94 % of control.
With `Cc1cc(C=C2C(=O)c3ccccc3C2=O)cc(C)c1O` the T/C (dose: 100.0 mg/kg/injection, schedule: Q04DX002 (ip), vehicle: saline) was 97 % of control, the T/C (dose: 200.0 mg/kg/injection, schedule: Q04DX002 (ip), vehicle: saline) was 101 % of control and the T/C (dose: 400.0 mg/kg/injection, schedule: Q04DX002 (ip), vehicle: saline) was 93 % of control.
In the case of `C/C(N=NC(=S)N1CCCCC1)=C1\C=CC=CN1O`, the T/C [11] is reported as 106 % of control, the T/C [12] is reported as 98 % of control and the T/C [13] is reported as 105 % of control.
